# Assay results taken from patent US10246498B2, “Genetically encoded histone reporter allele constructs” (THE JOHNS HOPKINS UNIVERSITY, priority 2014, dated 2019).
# “Also recorded” adds a separate entry of the source.
# How the values were obtained:
# [1] = system: H3K4 trimethylation activity in MEFs; experiment: H3K4me3 indicator in murine embryonic fibroblasts from Kmt2d+/βGeo and Kmt2d+/+ mice; type: cell-based, mouse; settings: Kmt2d+/βGeo cells (MEFs)
# Source text: An H3K4 trimethylation reporter was also created (FIG. 5B). This reporter is based on the H3 tail on one end and the TBP associated factor III (TAFIII) […] on the other end; the TAFIII […] only identifies and binds to trimethylated K4 on H3. When the H3K4 site gets trimethylated, the TAFIII […] can bind to the modified H3 tail and bring the two parts of the separated GFP in close proximity. The activity of the epigenetic modification system can be quantified through fluorescence.
# (§1) Epigenetic reporter alleles were synthesized (OriGene, Rockville, Md.) using published sequences for component elements (Baird et al. (1999) Proc. Natl. Acad. Sci. 96:11241-6; Souslova et al. (2007) BMC Biotechnol. 7:37). Single nucleotide mutations were created using the QuickChange Lightening kit (Agilent Technologies Inc, Santa Clara, Calif.). For H4ac indicator, K5R, K8R, K12R, K16R and K20R (MUT indicator) were introduced. For H3K4me3 indicator, K4Q and D890A/W891A and M882A (three separate constructs) were introduced. For transient transfections, mouse embryonic fibroblasts (see below) were transfected with Fugene HD (Promega, Madison, Wis.), 48 hours prior to FACS. […] For drug stimulation, drug was added to the media 24 hours prior to FACS. For stable transfections in T293 (American Type Culture Collection) cells, 10 μg/ml of Blastocidin (Life Technologies, Carlsbad, Calif.) was added to the media for several weeks. For stable transfection in MEFs, the reporter was transferred to a ViraPower Lentiviral Expression System (Life Technologies, Carlsbad, Calif.). After selection with Blastocidin, the drug of interest was added 24 hours prior to FACS. SAHA, AR-42 and MS275 were purchased from Selleck (Selleck Chemicals, Houston, Tex.). […] FACS data were analyzed using FlowJo (Tree Star Inc, Ashland, Oreg.). A plasmid expressing HDAC3 was acquired from Addgene (Cambridge, Mass., plasmid 13819) and transfected into a stable cell line carrying the H4 acetyl reporter allele.
# [2] = system: acetylation machinery (acetylation of H4 at K5, K8, K12, K16); experiment: H4 acetylation (H4ac) reporter allele, GFP fluorescence by FACS; type: cell-based; settings: for cells easily discriminated from auto fluorescence (% positive cells), H4ac reporter: FACS
# Source text: The acetyl reporter protein quantifies the activity of the acetylation machinery (acetylation of H4 specifically at the 5th, 8th, 12th and 16th Lysine's) and comprises an H4 tail on one end (the target for acetylation) and a TBP associated factor II (TAFII) bromodomain on the other end of the reporter protein (FIG. 5A). The TAFII bromodomain only recognizes and binds to the acetylated H4 tail, resulting in reconstitution of GFP structure and function (i.e. fluorescence). Therefore, the reporter protein has no fluorescence unless it is acetylated by the acetylation system of the nucleus of the cell.
# as §1
# Epigenetic reporter systems were created that monitor either H4 acetylation or H3K4 trimethylation machinery activity in an effort to determine whether there is an ongoing activity deficiency in cells from Kmt2d^+/βGeo mice (FIG. 18A). Both reporter alleles encode halves of green fluorescent protein separated by a flexible linker region (Baird et al. (1999) Proc. Natl. Acad. Sci. 96: 11241-6) with a histone tail and a histone reader at the N- and C-termini, respectively. When the histone tail corresponding to either H4 or H3 is modified by acetylation or methylation, respectively, GFP structure and function are reconstituted, as detected by a fluorescent readout (FIG. 18B). The acetyl reporter protein quantifies the activity of the acetylation machinery (acetylation of H4 specifically at sites K5, K8, K12, and K16) and comprises an H4 tail (residues 1-30) on one end and a TATA binding protein (TBP)-associated factor II (TAFII) bromodomain on the other end (FIG. 18A). The TAFII bromodomain only recognizes and binds to the acetylated H4 tail. […] For example, only 5% of cells were easily discriminated from auto fluorescence with 1 μM of SAHA, but increased to 20% with 2.5 μM of SAHA, 40% at 7.5 μM of SAHA and 45% at 10 μM of SAHA (FIG. 18D). Saturation of this response correlates well with immunoblot data using antibodies to the modified H4 tail (Munshi et al. (2006) Mol. Cancer Ther. 5:1967-74). This response is attenuated by co-transfection with a construct encoding a histone deacetylase (FIG. 20) and absent upon mutagenesis of all potential acetylation sites (FIG. 18E and FIG. 18I), attesting to its specificity. The H3K4 trimethylation reporter allele encodes the H3 tail (residues 1-40) on one end and the TBP-associated factor III (TAF3) plant homeodomain (PHD) on the other end, which binds to trimethylated K4 on H3 (FIG. 18A). […]
Structure (SMILES),H3K4 trimethylation activity [1],"cells easily discriminated from auto fluorescence (% positive cells), H4ac reporter ([2]; 1 μM SAHA) [%]","cells easily discriminated from auto fluorescence (% positive cells), H4ac reporter ([2]; 2.5 μM SAHA) [%]","cells easily discriminated from auto fluorescence (% positive cells), H4ac reporter ([2]; 7.5 μM SAHA) [%]","cells easily discriminated from auto fluorescence (% positive cells), H4ac reporter ([2]; 10 μM SAHA) [%]",acetylation of the indicator ([2]; FIG. 19A),"signal of the H4ac indicator ([2]; HEK293 cells stably expressing the indicator, attenuated by recombinant HDAC3)","fluorescence response of the acetylation indicator ([2]; increasing amounts of drug, culture systems)"
Nc1ccccc1NC(=O)c1ccc(CNC(=O)OCc2cccnc2)cc1 [MS275],enhanced; also recorded: improved,–,–,–,–,–,–,–
"O=C(CCCCCCC(=O)Nc1ccccc1)NO [SAHA, suberoylanilide hydroxamic acid]",–,5,20,40,45,increases acetylation of the indicator,increased signal,linear fluorescence response; also recorded: increasing fluorescence with increasing amounts
